Here are results for 15 compounds from US5026698A, “Thienopyridine type mevalonolactones” (Nissan Chemical Industries, Ltd., priority 1988, dated 1991).

In data set [1] the test system is cholesterol biosynthesis in Hep G2 cells. Description: Test B-1: Inhibition of cholesterol biosynthesis in culture cells (Hep G2, [2-14C]sodium acetate added at 0 hr). Format: cell-based. The following applies: for inhibition at 1 µM: 1.0 × 10^-6 mol/l, read-out: Inhibitory activities at a concentration of 1.0 × 10^-6 mol/l by Test B-1 (Relative activities); for Relative activities by Test B-1: based on the activity of CS-514 by Test B-1 being evaluated to be 1. The protocol: Hep G2 cells at over 5th passage were seeded to 12 well plates and incubated with Dulbecco's modified Eagle (DME) medium containing 10% of fetal bovine serum (FBS) at 37° C., 5% CO2 until cells -were confluent for about 7 days. Cells were exposed to the DME medium containing 5% of lipoprotein deficient serum (LpDS) prepared by ultracentrifugation method for over 24 hours. Medium was changed to 0.5 ml of fresh 5% LpDS containing DME before assay and 10 μl of test compound solution dissolved in water or DMSO were added. 0.2 μCi of [2-^14 C]sodium acetate (20 μl) was added at 0 hr(B 1) or 4 hrs(B 2) after addition of compounds. After 4 hrs further incubation with [2-^14 C]sodium acetate, medium was removed and cells were washed with phosphate buffered saline (PBS) chilled at 4° C. Cells were scraped with rubber policeman and collected to tubes with PBS and digested with 0.2 ml of 0.5N KOH at 37° C. Aliquot of digestion was used for protein analysis and remaining was saponified with 1 ml of 15% EtOH-KOH at 75° C. for 1 hour. Nonsaponifiable lipids were extracted with petroleum ether and ^14 C radioactivity was counted. Counts were revised by cell protein and indicated with DPM/mg protein. Inhibitory activity of compounds was indicated with IC50. With respect to the compounds of the present invention, the inhibitory activities against the cholesterol biosynthesis in which HMG-CoA reductase serves as a rate limiting enzyme, were measured by the above Test A and B.

The test system of data set [2] is cholesterol biosynthesis. The data set can be described thus: Test A: Inhibition of cholesterol biosynthesis from acetate in vitro (rat liver microsome and sup fraction, [2-14C]sodium acetate). The format is biochemical, male Wistar rat. To be noted: for Relative activities by Test A: based on the activity of CS-514 by Test A being evaluated to be 1. Here is the method: Enzyme solution was prepared from liver of male Wistar rat billialy connulated and discharged bile for over 24 hours. Liver was cut out at mid-dark and microsome and supernatant fraction which was precipitable with 40-80% of solution of ammonium sulfate (sup fraction) were prepared from liver homogenate according to the modified method of Knauss et. al.; Kuroda, M., et. al., Biochim. Biophys. Acta, 489, 119 (1977). For assay of cholesterol biosynthesis, microsome (0.1 mg protein) and sup fraction (1.0 mg protein) were incubated for 2 hours at 37° C. in 200 μl of the reaction mixture containing ATP; 1 mM, Glutathione; 6 mM, Glucose-1-phosphate; 10 mM, AND; 0.25 mM, NADP; 0.25 mM, CoA; 0.04 mM and 0.2 mM [2-^14 C]sodium acetate (0.2 μCi) with 4 μl of test compound solution dissolved in water or dimethyl sulfoxide. To stop reaction and saponify, 1 ml of 15% EtOH-KOH was added to the reactions and heated at 75° C. for 1 hour. Nonsaponifiable lipids were extracted with petroleum ether and incorporated ^14 C radioactivity was counted. Inhibitory activity of compounds was indicated with IC50.
With respect to the compounds of the present invention, the inhibitory activities against the cholesterol biosynthesis in which HMG-CoA reductase serves as a rate limiting enzyme, were measured by the above Test A and B. The results are shown in Tables 2, 3-1 and 3-2.
The relative activities of the compounds of the present invention based on the activities of CS-514 by Test A being evaluated to be 1, are shown in Table 2.

Data set [3] can be described thus: Test D: Acute toxicity. To be noted: mouse, in vivo, 1000 mg/kg; oral, 1,000 mg/kg, 0.5% CMC suspension, ICR male mice (group of three); read-out: mortality after seven days. Here is the method: A 0.5% CMC suspension of a test compound was orally administered to ICR male mice (group of three mice). The acute toxicity was determined based on the mortality after seven darys. With compound I-5-1, I-5-2, I-5-8, I-5-9 and I-5-10 of the present ivnention, the mortality was 0% even when they were orally administered in an amount of 1,000 mg/kg, respectively.

In data set [4] the test system is cholesterol biosynthesis. The data set can be described thus: Test C: Inhibition of cholesterol biosynthesis in vivo. The following applies: oral, 0.2 mg/kg, rats; DPM/2 ml serum/2 hours. Also on record: species or system Male Sprague-Dawley rats. The protocol: Male Sprague-Dawley rats weighing about 150 g were fed normal Purina chow diet and water ad libitum, and exposed to 12 hours light/12 hours dark lighting pattern (2:00 PM-2:00 AM dark) prior to use for in vivo inhibition test of cholesterol biosynthesis. Animals were separated groups consisting of five rats as to be average mean body weight in each groups. Test compounds at dosage of 0.02-0.2 mg/kg body weight (0.4 ml/100 g body weight), were dissolved in water or suspended in 0 5% methyl cellulose and orally administered at 2-3 hours before mid-dark (8:00 PM), while cholesterol biosynthesis reaches to maximum in rats. As control, rats were orally administered only water or vehicle. At 90 minutes after sample administration, rats were injected intraperitoneally with 10 μCi of [2-^14 C]sodium acetate at volume of 0.2 ml per one. 2 Hours later, blood samples were obtained and serum were separated immediately. Total lipids were extracted according to the method of Folch et al. and saponified with EtOH-KOH. Nonsaponifiable lipids were extracted with petroleum ether and radio activity incorporated into nonsaponifiable lipids was counted.
Inhibitory activity was indicated as percent decrease of counts in testing groups (DPM/2 ml serum/2 hours) from that in control group.

[5] abbreviates: Homo sapiens, HepG2, Hep G2 cells.

As for `Cc1sc2nc(C(C)C)c(/C=C/C(O)CC(O)CC(=O)O)c(-c3ccc(F)cc3)c2c1-c1ccccc1` (stereo not shown) [Compound I-5-4], the inhibition at 1 µM in data set [1] (setting [5]) worked out at 48.2%. In data set [1], the “Relative activities by Test B-1” value is 1.4.

As for `CC(C)c1nc2sc(-c3ccccc3)cc2c(-c2ccc(F)cc2)c1/C=C/C(O)CC(O)CC(=O)O` (stereo not shown) [Compound I-5-3], the inhibition at 1 µM in data set [1] (setting [5]) amounted to 46.8%.

As to `O=C(O)CC(O)CC(O)/C=C/c1c(C2CC2)nc2sc3c(c2c1-c1ccc(F)cc1)CCCCC3` (stereo not shown) [Compound I-5-10], in data set [2], the “Relative activities by Test A” value came out at 0.21. Besides, the inhibition at 1 µM in data set [1] (setting [5]) is 53.6%. Further, the mortality at 168 h in data set [3] came out at 0%.

With `Cc1cc2c(-c3ccc(F)cc3)c(/C=C/C(O)CC(O)CC(=O)O)c(C(C)C)nc2s1` (stereo not shown) [Compound I-5-2], the “Relative activities by Test A” value in data set [2] is reported as 0.51. The “Relative activities by Test B-1” value in data set [1] was determined as 76. In addition, the mortality at 168 h in data set [3] was 0%.

Consider `CCc1c(C)sc2nc(C(C)C)c(/C=C/C(O)CC(O)CC(=O)O)c(-c3ccc(F)cc3)c12` (stereo not shown) [Compound I-5-1, Sodium (E)-7-[3'-ethyl-4'-(4"-fluorophenyl)-2'-methyl-6'-(1"-methylethyl)thieno[2,3-b]pyridin-5'-yl]-3,5-dihydroxyhept-6-enoate], for which the “Relative activities by Test A” value in data set [2] was determined as 0.55. Moreover, the “Relative activities by Test B-1” value in data set [1] came to 152. In addition, the mortality at 168 h in data set [3] was 0%.

For the compound `CC(C)c1cc2c(-c3ccc(F)cc3)c(/C=C/C(O)CC(O)CC(=O)O)c(C(C)C)nc2s1` (stereo not shown) [Compound I-5-5], the “Relative activities by Test A” value in data set [2] is 0.31. For the same compound, the inhibition at 1 µM in data set [1] (setting [5]) is 69.8%. The “Relative activities by Test B-1” value in data set [1] was 62.

As for `CCc1c(C)sc2nc(C3CC3)c(/C=C/C(O)CC(O)CC(=O)O)c(-c3ccc(F)cc3)c12` (stereo not shown) [Compound I-5-7], the “Relative activities by Test A” value in data set [2] stood at 0.36. The inhibition at 1 µM in data set [1] (setting [5]) worked out at 64.1%.

`CCOC(=O)CC(O)CC(O)/C=C/c1c(C(C)C)nc2sc(C)c(CC)c2c1-c1ccc(F)cc1` (stereo not shown) [Compound I-1-1, Ethyl (E)-7-[3'-ethyl-4'-(4"-fluorophenyl)-2'-methyl-6'-(1"-methylethyl)thieno[2,3-b]pyridin-5'-yl]-3,5-dihydroxyhept-6-enoate]: the “Relative activities by Test A” value in data set [2] was found to be 0.50. Besides, in data set [1], the “Relative activities by Test B-1” value was found to be 196.

`O=C1C[C@H](O)C[C@@H](/C=C/c2c(C3CC3)nc3sccc3c2-c2ccc(F)cc2)O1` (relative stereo) [Compound I-3-11, (E)-trans-6-[2'-(6"-cyclopropyl-4"-(4"'-fluorophenyl)-thieno[2,3-b]pyridin-5"-yl)ethenyl]-4-hydroxy-3,4,5,6-tetrahydro-2H-pyran-2-one]: in data set [4], the “percent decrease of counts relative to control group (Test C)” value came to 68%.

Turning to `O=C(O)CC(O)CC(O)/C=C/c1c(C2CC2)nc2sccc2c1-c1ccc(F)cc1` (stereo not shown) [Compound I-5-11], the “Relative activities by Test B-1” value in data set [1] is listed as 60. In addition, the “percent decrease of counts relative to control group (Test C)” value in data set [4] was determined as 65%.

On to `CCOC(=O)CC(=O)CC(O)/C=C/c1c(C(C)C)nc2sc(C)cc2c1-c1ccc(F)cc1` (stereo not shown) [II-2], for which the “Relative activities by Test B-1” value in data set [1] was 152.

On to `CC(C)c1nc2sc3c(c2c(-c2ccc(F)cc2)c1/C=C/C(O)CC(O)CC(=O)O)CCC3` (stereo not shown) [Compound I-5-8], for which, in data set [2], the “Relative activities by Test A” value amounted to 0.32. Also, in data set [1] (setting [5]), the inhibition at 1 µM is 63.6%. For the same compound, in data set [3], the mortality at 168 h came out at 0%.

On to `CC[C@H](C)C(=O)O[C@H]1C[C@H](O)C=C2C=C[C@H](C)[C@H](CC[C@@H](O)C[C@@H](O)CC(=O)O)[C@H]21` [CS-514, reference compound], for which the IC50 in data set [2] (rat liver microsome + sup fraction, 2 hours at 37° C.) was 9 nM; in data set [1] (Homo sapiens, HepG2, Hep G2 cells, [2-14C]sodium acetate added at 0 hr), 1370 nM. For the same compound, the “percent decrease of counts relative to control group (Test C)” value in data set [4] stood at 34%.

For `O=C(O)CC(O)CC(O)/C=C/c1c(C2CC2)nc2sc3c(c2c1-c1ccc(F)cc1)CCC3` (stereo not shown) [Compound I-5-9], in data set [2], the “Relative activities by Test A” value is on record as 2.9. In addition, the inhibition at 1 µM in data set [1] (setting [5]) came to 62.4%. In data set [3], the mortality at 168 h came out at 0%.

In the case of `CC(C)c1nc2sc3c(c2c(-c2ccc(F)cc2)c1/C=C/C(O)CC(O)CC(=O)O)CCCC3` (stereo not shown) [Compound I-5-6], the “Relative activities by Test A” value in data set [2] is given as 4.1. Besides, the “Relative activities by Test B-1” value in data set [1] is recorded as 152.
